Experimental data: the NIST ThermoML archive (doi:10.1016/j.jct.2013.07.006)

Legend:
[1] = for molar entropy: 101.33 kPa, Vacuum adiabatic calorimetry
[2] = molar heat capacity at constant pressure; conditions: 101.33 kPa, Vacuum adiabatic calorimetry

[Cl][Ru-2]([Cl])([Cl])([Cl])([Cl])[Cl].[NH4+].[NH4+] [diammonium hexachlororuthenate]
Conditions	molar entropy, [1] [J/K/mol]	molar heat capacity at constant pressure, [2] [J/K/mol]
5 K, Crystal 2	0.1106	0.3475
5.89 K, Crystal 2	–	0.5877
7.09 K, Crystal 2	–	1.079
8.03 K, Crystal 2	–	1.495
9.46 K, Crystal 2	–	2.313
10 K, Crystal 2	0.9395	2.661
10.8 K, Crystal 2	–	3.236
11.99 K, Crystal 2	–	4.23
13.2 K, Crystal 2	–	5.407
14.5 K, Crystal 2	–	6.916
15 K, Crystal 2	2.827	7.358
15.9 K, Crystal 2	–	8.589
17.35 K, Crystal 2	–	10.37
18.81 K, Crystal 2	–	12.31
20 K, Crystal 2	5.82	13.97
20.31 K, Crystal 2	–	14.26
21.81 K, Crystal 2	–	16.45
23.4 K, Crystal 2	–	18.76
25 K, Crystal 2	9.703	21.24
25.1 K, Crystal 2	–	21.38
26.81 K, Crystal 2	–	24.18
28.54 K, Crystal 2	–	26.91
30 K, Crystal 2	14.44	29.49
30.27 K, Crystal 2	–	30.01
32.02 K, Crystal 2	–	33.06
33.91 K, Crystal 2	–	36.87
35 K, Crystal 2	19.68	38.87
35.95 K, Crystal 2	–	40.66
37.99 K, Crystal 2	–	44.72
40 K, Crystal 2	25.51	48.89
40.05 K, Crystal 2	–	48.96
42.12 K, Crystal 2	–	53.55
44.2 K, Crystal 2	–	58.17
45 K, Crystal 2	31.89	59.91
46.3 K, Crystal 2	–	62.77
48.41 K, Crystal 2	–	67.6
50 K, Crystal 2	38.8	71.36
50.8 K, Crystal 2	–	73.15
53.47 K, Crystal 2	–	79.64
55 K, Crystal 2	46.15	83.48
56.15 K, Crystal 2	–	86.22
58.85 K, Crystal 2	–	92.96
60 K, Crystal 2	53.94	95.95
61.55 K, Crystal 2	–	100.02
64.27 K, Crystal 2	–	107.34
65 K, Crystal 2	62.15	109.25
67.13 K, Crystal 2	–	114.99
70 K, Crystal 2	70.73	122.72
70.82 K, Crystal 2	–	125.13
75 K, Crystal 2	79.67	136.44
75.14 K, Crystal 2	–	136.94
79.45 K, Crystal 2	–	149.83
80 K, Crystal 2	88.97	151.49
83.79 K, Crystal 2	–	162.3
85 K, Crystal 2	98.53	165.79
88.18 K, Crystal 2	–	174.11
90 K, Crystal 2	108.42	179.09
92.84 K, Crystal 1	–	184.67
92.84 K, Crystal 2	–	184.67
95 K, Crystal 1	118.32	184.75
97.88 K, Crystal 1	–	182
100 K, Crystal 1	127.71	180.76
103.06 K, Crystal 1	–	178.1
105 K, Crystal 1	136.44	179.26
108.18 K, Crystal 1	–	182.59
110 K, Crystal 1	144.92	184.83
113.23 K, Crystal 1	–	188.41
115 K, Crystal 1	153.24	190.49
118.27 K, Crystal 1	–	194.14
120 K, Crystal 1	161.47	196.14
123.32 K, Crystal 1	–	199.88
125 K, Crystal 1	169.62	201.54
128.39 K, Crystal 1	–	205.12
130 K, Crystal 1	177.6	206.62
133.46 K, Crystal 1	–	209.77
135 K, Crystal 1	185.5	211.35
138.55 K, Crystal 1	–	214.6
140 K, Crystal 1	193.31	215.93
143.8 K, Crystal 1	–	219.17
145 K, Crystal 1	200.96	220.17
149.2 K, Crystal 1	–	223.33
150 K, Crystal 1	208.44	224.24
154.62 K, Crystal 1	–	227.65
160 K, Crystal 1	223.16	231.48
160.04 K, Crystal 1	–	231.39
165.48 K, Crystal 1	–	235.13
170 K, Crystal 1	237.38	238.13
170.9 K, Crystal 1	–	238.71
176.33 K, Crystal 1	–	242.45
180 K, Crystal 1	251.18	244.78
181.77 K, Crystal 1	–	245.78
187.21 K, Crystal 1	–	249.27
190 K, Crystal 1	264.65	251.43
192.66 K, Crystal 1	–	253.09
198.19 K, Crystal 1	–	256.75
200 K, Crystal 1	277.7	257.83
203.88 K, Crystal 1	–	260.16
209.62 K, Crystal 1	–	263.57
210 K, Crystal 1	290.43	263.74
215.39 K, Crystal 1	–	266.9
220 K, Crystal 1	302.81	269.06
221.19 K, Crystal 1	–	269.39
226.95 K, Crystal 1	–	272.55
230 K, Crystal 1	314.87	274.21
232.71 K, Crystal 1	–	275.46
238.48 K, Crystal 1	–	277.79
240 K, Crystal 1	326.68	278.37
244.25 K, Crystal 1	–	279.78
250 K, Crystal 1	338.07	281.53
250.07 K, Crystal 1	–	281.53
256.04 K, Crystal 1	–	283.36
260 K, Crystal 1	349.21	284.44
262.1 K, Crystal 1	–	285.02
268.12 K, Crystal 1	–	286.68
270 K, Crystal 1	359.93	287.18
274.34 K, Crystal 1	–	288.18
280 K, Crystal 1	370.49	290.18
280.52 K, Crystal 1	–	290.51
286.4 K, Crystal 1	–	292.01
290 K, Crystal 1	380.72	293.09
292.34 K, Crystal 1	–	293.92
298.15 K, Crystal 1	388.87	295.66
298.3 K, Crystal 1	–	295.25
300 K, Crystal 1	390.7	296.16
304.21 K, Crystal 1	–	297.33
310 K, Crystal 1	400.43	298.91
310.08 K, Crystal 1	–	298.91
315.97 K, Crystal 1	–	300.4
320 K, Crystal 1	409.99	301.15
321.87 K, Crystal 1	–	301.57
325 K, Crystal 1	414.64	302.23

Conditions	Triple point temperature [K]
[1], Crystal 2, Adiabatic calorimetry	92.84
